According to patent US8338420B1, “Treatment of Parkinson's disease and enhancement of dopamine signal using PDE 10 inhibitor” (Mitsubishi Tanabe Pharma Corporation, priority 2002, dated 2012):

Columns and labels:
PDE9 (PDE9A) = target: T1, PDE9 (PDE9A) (Homo sapiens, UniProt O76083); test: PDE assay, recombinant human PDE9A; type: biochemical; settings: substrate about 12 nM [3H]-cGMP and 0.1 μM cGMP
T1 construct: FLAG (pFLAG-CMV-2) (N); made in house; host or cells: COS-7 cells, 100,000 x g supernatant of the sonicate, not purified
T1 sequence (O76083 whole entry): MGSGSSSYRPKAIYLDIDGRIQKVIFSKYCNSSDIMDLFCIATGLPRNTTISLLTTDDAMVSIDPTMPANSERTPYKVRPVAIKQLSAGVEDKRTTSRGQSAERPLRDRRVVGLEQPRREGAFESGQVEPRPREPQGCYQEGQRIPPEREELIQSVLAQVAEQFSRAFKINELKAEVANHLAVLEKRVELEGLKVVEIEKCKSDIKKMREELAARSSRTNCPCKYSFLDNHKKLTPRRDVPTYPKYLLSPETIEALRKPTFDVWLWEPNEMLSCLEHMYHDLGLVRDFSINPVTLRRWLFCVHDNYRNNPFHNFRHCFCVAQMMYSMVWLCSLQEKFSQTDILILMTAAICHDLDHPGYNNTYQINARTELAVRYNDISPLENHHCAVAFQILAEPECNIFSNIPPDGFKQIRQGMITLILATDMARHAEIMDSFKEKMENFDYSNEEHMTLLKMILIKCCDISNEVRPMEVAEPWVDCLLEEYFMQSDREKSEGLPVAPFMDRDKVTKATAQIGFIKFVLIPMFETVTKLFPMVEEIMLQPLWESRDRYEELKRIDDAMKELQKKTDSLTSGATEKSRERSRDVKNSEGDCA
Protocol: Based on the information of cDNA sequence of human PDE9A (Genbank/EMBL Accession No. AF048837) (Fisher et al., J. Biol. Chem., 1998, vol. 273, pp. 15559-15564, […]), a cDNA encoding human PDE9A was cloned by PCR method. Using this cDNA, a recombinant protein of human PDE9A was prepared as follows.
A DNA fragment comprising a cDNA encoding human PDE9A was linked to pFLAG-CMV-2 (available from Kodak), to give a vector plasmid for expression of human PDE9A, with a flag tag peptide added to the N-terminus. COS-7 cells were transfected by these vector plasmids, and the cells were cultured in Dulbecco's modified Eagle medium containing 10% bovine fetal serum for about 24 to 48 hours. After incubation, the cells were collected, and washed with Phosphate buffered saline, and re-suspended in a solution buffer (20 mM Tris-HCl, pH7.5, 2 mM magnesium acetate, 0.3 mM calcium chloride, 1 mM dithiothreitol, 1.3 mM benzamidine). The cells were homogenized by ultrasonic treatment, and subjected to centrifugation (100,000×g, 4° C., 1 hour) to collect a supernatant.
This supernatant containing the recombinant human PDE9A was used for PDE assay as a PDE9 (PDE9A) enzyme solution. […]

[1] = tested on: rat 6-hydroxydopamine model; test: Rat 6-hydroxydopamine model, L-dopa induced rotational behaviors; type: in vivo, SD rat; settings: 1 mg/kg, i.v.; L-dopa 10 mg/kg i.p. + benserazide 2.5 mg/kg i.p.
Protocol: Preparation of rat 6-hydroxydopamine model According to the method described in the literature (Koga et al., European Journal of Pharmacology, vol. 408, pp. 249-255, 2000), 6-hydroxydopamine (6-OHDA) was administered in the rat's brain, to cause lesion in the substantia nigra of the brain, to thereby cause motor disability. As the rats, male SD (Sprague Dawley) rats (about 9 to 10 week old) were used. To these rats was administered desipramine (available from Sigma) (25 mg/kg, i.p.). Desipramine was used after being dissolved in distilled water to be 25 mg/ml. […]
One week after administration of 6-OHDA, apomorphine was administered, and rotational behaviors were confirmed to appear due to the lesion of substantia nigra by 6-OHDA in one hemisphere. […] Turnings were counted in every 5-minute interval, until rotational behaviors disappeared or until an event was repeated twice in which the number of turnings became 5 or less during the 5-minute interval. […]
To the model rat prepared in the above (1) (2 weeks after administration of apomorphine), L-dopa and benserazide (dopa decarboxylase inhibitor which inhibits degradation of L-dopa) were administered, and numbers of tunings were measured. […]
L-dopa was administered 30 minutes after benserazide administration, and turnings were counted after L-dopa administration. […]

SMILES: COc1ccc(-c2cc(N3CCCC3)nc(/C=C/c3nc(-n4ccnc4)c4ccccc4n3)n2)cc1OC [Compound A, 2-{(E)-2-[4-(1-imidazolyl)-quinazolin-2-yl]}ethenyl-4-(3,4-dimethoxy)phenyl-6-(pyrrolidin-1-yl)pyrimidine]
- IC50 (PDE9 (PDE9A)): > 1 µM
- L-dopa induced rotational behaviors, total number of turnings [1]: tended to increase
- duration of L-dopa induced rotational behaviors [1]: significantly prolonged
